This passage reports IC50 results from patent US9617237B2, “Partially saturated tricyclic compounds and methods of making and using same” (Zafgen, Inc., priority 2011, dated 2017).

A word on the IC50: it is the midpoint of a concentration-inhibition curve.

Bounds are passed on as bounds.

This assay deals with T1, recombinant human MetAP2 (Homo sapiens, UniProt P50579).
T1 construct: made in house; host or cells: Sf9 insect cells
T1 sequence (P50579 whole entry): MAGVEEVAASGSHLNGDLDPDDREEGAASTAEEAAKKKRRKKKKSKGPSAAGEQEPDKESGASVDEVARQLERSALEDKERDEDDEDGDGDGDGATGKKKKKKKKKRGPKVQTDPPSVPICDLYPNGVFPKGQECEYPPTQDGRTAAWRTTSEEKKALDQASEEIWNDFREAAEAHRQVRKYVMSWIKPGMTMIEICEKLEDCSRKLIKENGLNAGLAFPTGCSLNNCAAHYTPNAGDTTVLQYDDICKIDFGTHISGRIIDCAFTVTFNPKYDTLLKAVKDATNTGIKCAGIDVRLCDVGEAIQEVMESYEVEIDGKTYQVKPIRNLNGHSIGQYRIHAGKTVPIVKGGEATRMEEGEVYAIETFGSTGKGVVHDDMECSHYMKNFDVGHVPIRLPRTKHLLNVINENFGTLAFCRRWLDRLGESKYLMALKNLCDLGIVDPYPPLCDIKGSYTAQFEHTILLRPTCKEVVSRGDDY
In words: Inhibition of recombinant human MetAP2 activity (fluorescence, MAS substrate, amino acid oxidase/Amplex red). The conditions noted are these: manganese enzyme; 0.75 mM Methionine-Alanine-Serine (MAS) substrate; 30 minutes at 25° C.; pH 7.5; 1% DMSO. It is filed as biochemical. The method, then:
Compounds are tested for their capacity to inhibit recombinant human MetAP2 activity using the following assay.
Human recombinant MetAP2 expressed in Sf9 cells followed by affinity purification and EDTA treatment to remove endogenous active site cation was dialysed against MnCl2 to produce the manganese enzyme used in the assay. The assay was carried out for 30 minutes at 25° C. in 50 mM HEPES buffer containing 100 mM NaCl, pH 7.5 the presence of 0.75 mM Methionine-Alanine-Serine (MAS) substrate and 50 μg/ml amino acid oxidase using a dilution of purified MetAP2 giving >3-fold signal: noise. Cleavage of the substrate by MetAP2 and oxidation of free methionine by amino acid oxidase was detected and quantified using fluorescence generated by Amplex red (10-acetyl-3,7-dihydroxyphenoxazine) in combination with horseradish peroxidase which detects H2O2 released during the oxidation step. The fluorescent signal was detected using a multiwell fluorimeter. Compounds were diluted in DMSO prior to addition to assay buffer, the final DMSO concentration in the assay being 1%.
IC50 values are calculated using the XLfit software package (version 2.0.5).
For `CCN1CC(c2cc(F)ccc2S(=O)(=O)Nc2ccc3c(c2C(=O)O)OC[C@@H]2C[C@H]32)C1` (racemic) [(1aRS,7bSR)-5-[2-(1-Ethylazetidin-3-yl)-4-fluorobenzene-sulfonylamino]-1,1a,2,7b-tetrahydro-cyclopropa[c]chromene-4-carboxylic acid], the IC50 fell in the range of 50 to 500 nM. As for `CCN1CCC(Cc2cc(F)ccc2S(=O)(=O)Nc2ccc3c(c2C(=O)O)OC[C@@H]2C[C@H]32)CC1` (racemic) [(1aRS,7bSR)-5-[2-(1-Ethylpiperidin-4-ylmethyl)-4-fluoro-benzenesulfonylamino]-1,1a,2,7b-tetrahydrocyclopropa-[c]chromene-4-carboxylic acid], the IC50 was under 50 nM. Regarding `CN(C)CCCNc1ccccc1S(=O)(=O)Nc1ccc2c(c1C(=O)O)OC[C@@H]1C[C@H]21` (racemic) [(1aRS,7bSR)-5-[2-(3-Dimethylaminopropylamino)benzene-sulfonylamino]-1,1a,2,7b-tetrahydrocyclopropa[c]chromene-4-carboxylic acid], the IC50 is under 50 nM.

Consider `CN(C)CCCNC(=O)c1ccccc1S(=O)(=O)Nc1ccc2c(c1C(=O)O)OC[C@@H]1C[C@H]21` (racemic) [(1aRS,7bSR)-5-[2-(3-Dimethylaminopropylcarbamoyl)benzene-sulfonylamino]-1,1a,2,7b-tetrahydrocyclopropa[c]chromene-4-carboxylic acid], for which the IC50 was 50 to 500 nM. Regarding `CN(C)CCCCNc1cc(F)ccc1S(=O)(=O)Nc1ccc2c(c1C(=O)O)OC[C@@H]1C[C@H]21` (racemic) [(1aRS,7bSR)-5-[2-(4-Dimethylaminobutylamino)-4-fluoro-benzenesulfonyl-amino]-1,1a,2,7b-tetrahydrocyclopropa-[c]chromene-4-carboxylic acid], the IC50 was in the range of 50 to 500 nM.

For the molecule `CN(C)CCCCNc1ccccc1S(=O)(=O)Nc1ccc2c(c1C(=O)O)OC[C@@H]1C[C@H]21` (racemic) [(1aRS,7bSR)-5-[2-(4-Dimethylaminobutylamino)benzene-sulfonylamino]-1,1a,2,7b-tetrahydrocyclopropa[c]chromene-4-carboxylic acid], the IC50 is under 50 nM.

Regarding `CN(C)CCCC(=O)Nc1cc(F)ccc1S(=O)(=O)Nc1ccc2c(c1C(=O)O)OC[C@@H]1C[C@H]21` (racemic) [(1aRS,7bSR)-5-[2-(4-Dimethylaminobutyrylamino)-4-fluorobenzenesulfonyl-amino]-1,1a,2,7b-tetrahydrocyclopropa-[c]chromene-4-carboxylic acid], the concentration for half-maximal inhibition (IC50) is 50 to 500 nM. Then `CCN1CCN(Cc2cc(F)ccc2S(=O)(=O)Nc2ccc3c(c2C(=O)O)OC[C@@H]2C[C@H]32)C(=O)C1` (racemic) [(1aRS,7bSR)-5-[2-(4-Ethyl-2-oxopiperazin-1-ylmethyl)-4-fluorobenzene-sulfonylamino]-1,1a,2,7b-tetrahydrocyclopropa-[c]chromene-4-carboxylic acid], with 50 to 500 nM; and `CN(C)CCCCCNc1ccccc1S(=O)(=O)Nc1ccc2c(c1C(=O)O)OC[C@@H]1C[C@H]21` (racemic) [(1aRS,7bSR)-5-[2-(5-Dimethylaminopentylamino)benzene-sulfonylamino]-1,1a,2,7b-tetrahydrocyclopropa[c]chromene-4-carboxylic acid], with under 50 nM. For `CCN(CC)C/C(C)=C\c1cc(F)ccc1S(=O)(=O)Nc1ccc2c(c1C(=O)O)OC[C@@H]1C[C@H]21` (racemic) [(1aRS,7bSR)-5-[2-((Z)-3-Diethylamino-2-methylprop-1-enyl)-4-fluorobenzene-sulfonylamino]-1,1a,2,7b-tetrahydrocyclopropa-[c]chromene-4-carboxylic acid], the IC50 was under 50 nM. Then `CCN(CC)C/C=C\c1cc(F)ccc1S(=O)(=O)Nc1ccc2c(c1C(=O)O)OCC1C2C1(F)F` (racemic) [(1aRS,7bSR)-5-[2-((Z)-3-Diethylaminoprop-1-enyl)-4-fluorobenzene-sulfonylamino]-1,1-difluoro-1,1a,2,7b-tetrahydrocyclopropa[c]chromene-4-carboxylic acid], with under 50 nM; and `CCN1CC(CCc2cc(F)ccc2S(=O)(=O)Nc2ccc3c(c2C(=O)O)OC[C@@H]2C[C@H]32)C1` (racemic) [(1aRS,7bSR)-5-{2-[2-(1-Ethylazetidin-3-yl)ethyl]-4-fluoro-benzenesulfonyl-amino}-1,1a,2,7b-tetrahydrocyclopropa-[c]chromene-4-carboxylic acid], with 50 to 500 nM. To `CCN1CCN(CCc2cc(F)ccc2S(=O)(=O)Nc2ccc3c(c2C(=O)O)OC[C@@H]2C[C@H]32)CC1` (racemic) [(1aRS,7bSR)-5-{2-[2-(4-Ethylpiperazin-1-yl)-ethyl]-4-fluorobenzenesulfonylamino}-1,1a,2,7b-tetrahydrocyclopropa[c]chromene-4-carboxylic acid] belongs 50 to 500 nM; to `O=C(O)c1c(NS(=O)(=O)c2ccc(F)cc2CCN2CCCC2)ccc2c1OC[C@@H]1C[C@H]21` (racemic) [(1aRS,7bSR)-5-{2-[2-(Pyrrolidin-1-yl)-ethyl]-4-fluorobenzene-sulfonylamino}-1,1a,2,7b-tetrahydrocyclopropa[c]chromene-4-carboxylic acid], 50 to 500 nM; to `O=C(O)c1c(NS(=O)(=O)c2ccccc2N[C@H]2CN3CCC2CC3)ccc2c1OCC1CC21` (mixture of isomers) [(1aRS,7bSR)-5-{2-[((R)-1-Azabicyclo[2.2.2]oct-3-yl)amino]benzenesulfonyl-amino}-1,1a,2,7b-tetrahydrocyclopropa[c]chromene-4-carboxylic acid], under 50 nM. On to `O=C(O)c1c(NS(=O)(=O)c2ccccc2N[C@@H]2CN3CCC2CC3)ccc2c1OCC1CC21` (mixture of isomers) [(1aRS,7bSR)-5-{2-[((S)-1-Azabicyclo[2.2.2]oct-3-yl)amino]benzenesulfonyl-amino}-1,1a,2,7b-tetrahydrocyclopropa[c]chromene-4-carboxylic acid], for which the IC50 was in the range of 50 to 500 nM. As for `CN(C)CCCCN(C)c1ccccc1S(=O)(=O)Nc1ccc2c(c1C(=O)O)OC[C@@H]1C[C@H]21` (racemic) [(1aRS,7bSR)-5-{2-[N-(4-Dimethylaminobutyl)-N-methylamino]-benzenesulfonyl-amino}-1,1a,2,7b-tetrahydrocyclopropa-[c]chromene-4-carboxylic acid], the IC50 is over 500 nM. Then `O=C(O)c1c(NS(=O)(=O)c2ccc(F)cc2/C=C\CN2CCC2)ccc2c1OC[C@@H]1C[C@H]21` (racemic) [(1aRS,7bSR)-5-{2[(Z)-3-(Azetidin-1-yl)prop-1-enyl]-4-fluorobenzene-sulfonylamino}-1,1a,2,7b-tetrahydro-cyclopropa[c]chromene-4-carboxylic acid], with 50 to 500 nM; and `O=C(O)c1c(NS(=O)(=O)c2ccc(F)cc2/C=C\CN2CCCC2)ccc2c1OC[C@@H]1C[C@H]21` (racemic) [(1aRS,7bSR)-5-{2[(Z)-3-(Pyrrolidin-1-yl)prop-1-enyl]-4-fluorobenzenesulfonylamino}-1,1a,2,7b-tetrahydro-cyclopropa[c]chromene-4-carboxylic acid], with under 50 nM.

Turning to `O=C(O)c1c(NS(=O)(=O)c2ccccc2)ccc2c1OC[C@H]1OCC[C@@H]21` (racemic) [Cis-(3aRS,9bRS)-7-(Benzenesulfonylamino)-1,3a,4,9b-tetrahydro-2H-furo[2,3-c]chromene-6-carboxylic acid], the IC50 lay within 50 to 500 nM.
